Results taken from article PMC6661780, “Design, synthesis, antiviral bioactivities and interaction mechanisms of penta-1,4-diene-3-one oxime ether derivatives containing a quinazolin-4(3H)-one scaffold” (BMC Chemistry, 2019).

Target: T1, TMV CP (TMV coat protein) (Tobacco mosaic virus (vulgare), UniProt P69687)
T1 construct: NT-647 dye labelled for MST
Assay: microscale thermophoresis (Monolith NT.[…], NT-647-labelled protein)
Assay type: binding

T1 sequence (P69687 2-159 limits assumed): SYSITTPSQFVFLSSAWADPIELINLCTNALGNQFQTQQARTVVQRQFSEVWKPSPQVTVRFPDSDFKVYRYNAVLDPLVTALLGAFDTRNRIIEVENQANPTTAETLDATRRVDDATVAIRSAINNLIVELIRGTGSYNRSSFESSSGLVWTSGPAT

## O=c1c2ccccc2ncn1CO/N=C(\C=C\c1ccccn1)/C=C/c1ccccc1OCc1ccc(Cl)cc1Cl [8k]
  Kd: 0.97 ± 0.69 µM
